The results in this text go back to paper PMC3549563 (Journal of Neurochemistry, 2012).

The target of the assay is T1, ACR-16 (Caenorhabditis elegans, UniProt P48180).
T1 sequence (P48180 20-498): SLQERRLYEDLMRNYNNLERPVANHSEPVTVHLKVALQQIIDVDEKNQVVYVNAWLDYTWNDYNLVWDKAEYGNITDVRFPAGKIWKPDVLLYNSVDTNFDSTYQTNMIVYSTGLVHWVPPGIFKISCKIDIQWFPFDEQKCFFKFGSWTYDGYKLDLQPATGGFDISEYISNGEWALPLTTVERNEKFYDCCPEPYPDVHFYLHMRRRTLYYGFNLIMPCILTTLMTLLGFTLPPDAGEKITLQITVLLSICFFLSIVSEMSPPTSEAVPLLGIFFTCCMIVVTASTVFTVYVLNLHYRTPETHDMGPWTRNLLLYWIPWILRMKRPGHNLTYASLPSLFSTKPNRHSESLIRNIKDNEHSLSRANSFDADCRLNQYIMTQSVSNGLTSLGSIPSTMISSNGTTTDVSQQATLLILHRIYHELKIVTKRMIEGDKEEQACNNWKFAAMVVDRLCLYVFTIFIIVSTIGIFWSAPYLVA
Kind of assay: two-electrode voltage clamp, Xenopus oocytes, peak current. It is filed as cell-based. (In general: In two-electrode clamp one electrode senses voltage and the other passes current.)

The EC50 is the concentration giving half of the maximal effect.

As to `CN1CCC[C@H]1c1cccnc1` [nicotine], the EC50 is 22 µM.
`CC(=O)OCC[N+](C)(C)C` [acetylcholine] yielded an EC50 of 24 µM.
